target: T1, influenza A virus (IAV) PA-Nter fragment (amino acids 1-209) (Influenza A virus, UniProt P31343); assay: FRET endonuclease activity assay; assay type: biochemical; conditions: calculated from initial reaction velocities (v0); 0.5 μM PA-Nter, 1.6 μM RNA substrate
T1 construct: PA-Nter fragment (amino acids 1-209); made in house

SMILES	IC50
O=C(O)c1cn(CC2(c3ccccc3)CCCC2)c2cccnc2c1=O	600 nM
O=C(O)c1cn(Cc2ccccc2-c2ccccc2)c2cccnc2c1=O	760 nM
O=C(O)c1cn(CC2(c3ccccc3)CCCC2)c2nccnc2c1=O	9700 nM
O=C(O)c1cn(Cc2ccccc2-c2ccccc2)c2nccnc2c1=O	7800 nM
O=C(O)c1cn(Cc2ccccc2-c2ccc(Cl)cc2)c2cccnc2c1=O	430 nM
Cc1cnc2c(=O)c(C(=O)O)cn(Cc3ccccc3-c3ccccc3)c2c1	570 nM
O=C(O)c1cn(Cc2ccccc2-c2ccccc2)c2cc(Br)cnc2c1=O [1-(Biphenyl-2-ylmethyl)-7-bromo-4-oxo-1,4-dihydro-1,5-naphthyridine-3-carboxylic acid]	1500 nM

— patent US9505758B2 (priority 2013, dated 2016)
